Results from ChEMBL document CHEMBL3400074, “Development of 2-amino-5-phenylthiophene-3-carboxamide derivatives as novel inhibitors of Mycobacterium tuberculosis DNA GyrB domain” (Bioorg Med Chem, 2015).

Experiments:
[1] = Cytotoxicity against mouse RAW264.7 cells at 100 uM after 48 hrs by MTT assay; format: cell-based; conditions: read-out: INH
DNA gyrase subunit B = DNA gyrase subunit B (Mycobacterium smegmatis, UniProt P0C559); assay: Inhibition of Mycobacterium smegmatis DNA GyrB domain assessed as inhibition of inorganic phosphate release after 100 mins at room temperature by ATPase assay; parameters: species or system Mycolicibacterium smegmatis
[2] = Inhibition of Mycobacterium tuberculosis DNA GyrA/B heterotetramer assessed as inhibition of pBR322 supercoiling after 30 mins by gel electrophoresis
[3] = molecular target: DNA gyrase subunit B (Mycobacterium smegmatis) (UniProt P0C559); assay: Binding affinity to Mycobacterium smegmatis DNA GyrB domain assessed as change in melting temperature by differential scanning fluorimetry; conditions: Mycolicibacterium smegmatis
DNA gyrase subunit B (Mycobacterium smegmatis), sequence (P0C559 2-675 limits assumed): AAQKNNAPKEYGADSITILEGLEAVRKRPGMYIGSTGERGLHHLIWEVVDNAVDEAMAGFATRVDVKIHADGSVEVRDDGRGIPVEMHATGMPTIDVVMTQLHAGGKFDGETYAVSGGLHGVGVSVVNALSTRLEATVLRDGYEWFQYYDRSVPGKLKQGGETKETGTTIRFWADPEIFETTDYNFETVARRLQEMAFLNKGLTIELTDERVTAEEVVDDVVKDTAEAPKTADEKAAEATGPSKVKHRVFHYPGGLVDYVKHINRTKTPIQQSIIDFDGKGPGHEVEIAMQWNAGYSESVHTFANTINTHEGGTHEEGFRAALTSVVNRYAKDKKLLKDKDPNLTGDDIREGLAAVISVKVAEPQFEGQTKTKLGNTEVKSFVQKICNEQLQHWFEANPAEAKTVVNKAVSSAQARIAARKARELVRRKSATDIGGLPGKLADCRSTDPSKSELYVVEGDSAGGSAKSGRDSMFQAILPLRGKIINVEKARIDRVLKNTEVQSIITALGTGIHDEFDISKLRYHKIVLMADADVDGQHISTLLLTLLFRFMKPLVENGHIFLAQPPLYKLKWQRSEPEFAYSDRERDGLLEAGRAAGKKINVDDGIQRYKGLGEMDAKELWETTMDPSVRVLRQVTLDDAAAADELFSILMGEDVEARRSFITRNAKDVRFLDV

DNA gyrase subunit B, sequence (P0C559 whole entry, the tested form may be a part): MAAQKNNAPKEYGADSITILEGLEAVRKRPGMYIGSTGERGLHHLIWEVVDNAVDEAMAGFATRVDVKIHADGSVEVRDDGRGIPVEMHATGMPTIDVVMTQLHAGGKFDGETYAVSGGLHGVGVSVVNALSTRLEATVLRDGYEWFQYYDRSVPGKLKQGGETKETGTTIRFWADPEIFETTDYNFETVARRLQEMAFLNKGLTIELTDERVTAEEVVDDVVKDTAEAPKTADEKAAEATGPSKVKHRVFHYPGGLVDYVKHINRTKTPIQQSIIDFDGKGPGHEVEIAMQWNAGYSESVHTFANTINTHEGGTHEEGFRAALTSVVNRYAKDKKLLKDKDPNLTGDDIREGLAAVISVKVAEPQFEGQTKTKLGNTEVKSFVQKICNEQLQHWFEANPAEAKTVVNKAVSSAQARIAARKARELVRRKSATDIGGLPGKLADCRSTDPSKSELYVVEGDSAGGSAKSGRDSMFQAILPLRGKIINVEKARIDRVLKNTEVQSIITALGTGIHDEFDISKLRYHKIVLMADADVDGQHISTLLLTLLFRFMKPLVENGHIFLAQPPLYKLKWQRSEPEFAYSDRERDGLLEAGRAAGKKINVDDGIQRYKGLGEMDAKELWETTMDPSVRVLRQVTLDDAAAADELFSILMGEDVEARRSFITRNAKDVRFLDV

SMILES	cytotoxicity at 48 h, 100 µM [1] [%]	IC50 (DNA gyrase subunit B) [µM]	IC50 [2] [µM]	ΔTm [3] [°C]
CC(C)NC(=O)Nc1sc(-c2ccccc2)cc1C(N)=O	36.1	6.47	6.17	–
NC(=O)c1cc(-c2ccccc2)sc1NC(=O)Nc1ccccc1	37.3	1.83	1.32	–
NC(=O)c1cc(-c2ccccc2)sc1NC(=O)C1CCCCC1	39	10.2	9.83	–
NC(=O)c1cc(-c2ccccc2)sc1NC(=O)c1cccc2ccccc12	36.8	28.6	> 25	–
CCC(=O)Nc1sc(-c2ccccc2)cc1C(N)=O	39.4	11.8	5.62	–
NC(=O)c1cc(-c2ccccc2)sc1NC(=S)Nc1ccc(Cl)cc1	36.1	71.4	> 25	–
NC(=O)c1cc(-c2ccccc2)sc1NC(=O)c1ccccc1	37.6	0.86	0.76	2.5
NC(=O)c1cc(-c2ccccc2)sc1NC(=O)NCc1ccccc1	33	10.8	8.89	–
NC(=O)c1cc(-c2ccccc2)sc1NC(=S)Nc1ccc([N+](=O)[O-])cc1	40.3	32.5	> 25	–
CCCC(=O)Nc1sc(-c2ccccc2)cc1C(N)=O	39.8	3.57	3.14	–
NC(=O)c1cc(-c2ccccc2)sc1NC(=O)Nc1ccc(Br)cc1	37.6	12.2	> 25	–
NC(=O)c1cc(-c2ccccc2)sc1NC(=S)Nc1ccc(F)cc1	32.1	48.9	> 25	–
NC(=O)c1cc(-c2ccccc2)sc1NC(=O)c1cnccn1	34.3	18.4	> 25	–
CC(=O)Nc1sc(-c2ccccc2)cc1C(N)=O	37.5	19.1	11.8	–
NC(=O)c1cc(-c2ccccc2)sc1NC(=O)Nc1ccc(F)cc1	33.7	11.5	9.88	–
CO[C@@H]1[C@@H](OC(N)=O)[C@@H](O)[C@H](Oc2ccc3c(O)c(NC(=O)c4ccc(O)c(CC=C(C)C)c4)c(=O)oc3c2C)OC1(C)C [NOVOBIOCIN]	81.7	–	–	–
NC(=O)c1cc(-c2ccccc2)sc1NC(=O)C1CCCC1	39.7	42.2	> 25	–
NC(=O)c1cc(-c2ccccc2)sc1NC(=O)Nc1ccc(Cl)cc1	38.2	3.14	2.97	–
NC(=O)c1cc(-c2ccccc2)sc1NC(=S)Nc1ccc(Br)cc1	35.6	10.9	9.63	–
NC(=O)c1cc(-c2ccccc2)sc1NC(=O)Nc1ccc([N+](=O)[O-])cc1	37.3	12.8	10.9	–
NC(=O)c1cc(-c2ccccc2)sc1NC(=O)c1ccc(Cl)cc1	38.5	6.69	5.82	–
NC(=O)c1cc(-c2ccccc2)sc1NC(=O)c1cccs1	–	1.5	1.16	–
NC(=O)c1cc(-c2ccccc2)sc1NC(=S)NCc1ccccc1	36.1	28.3	17.8	–
NC(=O)c1cc(-c2ccccc2)sc1NC(=O)c1cc2ccccc2[nH]1	36.2	22	18.2	–
CC(C)NC(=S)Nc1sc(-c2ccccc2)cc1C(N)=O	35.5	16.2	9.25	–
Cc1ccc(NC(=O)Nc2sc(-c3ccccc3)cc2C(N)=O)cc1	37.6	24	> 25	–
NC(=O)c1cc(-c2ccccc2)sc1NC(=S)Nc1ccccc1	32.8	70.3	> 25	–
Cc1ccc(NC(=S)Nc2sc(-c3ccccc3)cc2C(N)=O)cc1	34.8	2.46	2.97	–
NC(=O)c1cc(-c2ccccc2)sc1NC(=O)c1ccc(Oc2ccccc2)cc1	35.8	17.3	8.85	–
NC(=O)c1cc(-c2ccccc2)sc1NC(=O)c1ccc([N+](=O)[O-])cc1	35.9	8.91	6.77	–
